Legend:
HLA-E*01:03 = HLA-E*01:03 (Homo sapiens, UniProt P13747); assay type: binding; conditions: S/P relative to positive control […] or […], tested at least two times, median, Figure 1
NKG2A/CD94 = NKG2A/CD94 (Homo sapiens, UniProt P26715+Q13241); assay type: binding
NKG2A/CD94, sequence (P26715 whole entry): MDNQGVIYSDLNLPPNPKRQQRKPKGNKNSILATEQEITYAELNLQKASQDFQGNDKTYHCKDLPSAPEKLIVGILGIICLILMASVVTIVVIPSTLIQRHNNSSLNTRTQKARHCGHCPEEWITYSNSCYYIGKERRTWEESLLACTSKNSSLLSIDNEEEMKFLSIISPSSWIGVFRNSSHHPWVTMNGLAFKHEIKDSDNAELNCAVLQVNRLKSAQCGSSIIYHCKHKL
NKG2A/CD94, sequence (Q13241 whole entry): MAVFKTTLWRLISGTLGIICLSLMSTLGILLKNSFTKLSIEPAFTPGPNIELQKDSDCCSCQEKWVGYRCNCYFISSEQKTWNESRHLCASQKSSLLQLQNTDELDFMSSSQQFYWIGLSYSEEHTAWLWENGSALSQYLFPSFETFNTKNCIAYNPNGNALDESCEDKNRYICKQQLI

VMTPRTLTL [Mtb34-VL9-hybrid]
Peptide binding affinity for HLA-E*01:03 (signal to positive, S/P, ratio), in words (HLA-E*01:03): increased the affinity

VMAPRTLVL [Mtb55-VL9-hybrid]
Peptide binding affinity for HLA-E*01:03 (signal to positive, S/P, ratio), in words (HLA-E*01:03): increased the affinity
Interaction of thermal exchanged HLA-E TM/peptide complex with NKG2A/CD94, in words (NKG2A/CD94): could interact

From article PMC12041767 (Journal of immunology (Baltimore, Md. : 1950), 2025)
